In article PMC4965013, “Open Source Drug Discovery with the Malaria Box Compound Collection for Neglected Diseases and Beyond” (PLoS Pathogens, 2016):
Where “and” joins values, the source holds several entries; their conditions need not be identical. Identical values can stand only once. Like-named read-outs stand apart in the source and are kept apart here.

Columns and labels:
[1] = tested on: P. falciparum 3D7 or K1; test: Asexual Blood Stage Imaging Assay (DAPI) V. Avery; assay type: cell-based; details: Plasmodium falciparum; 5µM; read-out: P. falciparum 3D7 asexual blood stage % inhibition (Image)
[2] = tested on: P. falciparum NF54 gametocytes stage IV/V; test: Gametocyte PrestoBlue resazurin assay Mancama; assay type: cell-based; details: Plasmodium falciparum, NF54; 5µM; read-out: NF54 gametocyte Late Stage IV/V Resazurin %inhibition
[3] = tested on: B. bigemina (Argentine strain); test: B. bigemina fluorescence-based growth assay; assay type: cell-based; details: Babesia bigemina
[4] = tested on: Onchocerca lienalis microfilariae; test: Onchocerca lienalis microfilariae motility; assay type: cell-based; details: 12.5µM
Method: Column DW: Townson group (data presented first in this paper). Screening of Onchocerca lienalis microfilariae for motility inhibition in microplates. Methods: Microfilariae are obtained from samples of peri-umbilical skin of freshly slaughtered, naturally infected cattle in the UK. […] The results are then calculated as motility index scores and expressed as a percentage of the maximum obtainable. […] Merial) were immotile at the end of the trial.

[5] = tested on: Mycobacterium tuberculosis mc26220 replicating; test: microbe, parasite or virus in culture; assay type: cell-based
[6] = Mouse oral PK single dose; assay type: in vivo; details: male, CD-1, mouse, plasma, 140 umol/kg; 140 μmol/kg oral
Method: Columns GD-GJ: Wuxi Inc. data for MMV (data presented first in this paper) PK/DMPK Parameters: Fasted animals (Male CD-1 mouse, 7-9 weeks age, 30±10 g, n=3) obtained from an approved vendor (SLAC Laboratory Animal Co. Ltd., Shanghai, China or Sino-British SIPPR/BK Laboratory Animal Co. Ltd Shanghai, China) were administered with a single oral dose (140 μmol/kg) using DMSO: 1% HPMC (5:95) as a vehicle. Blood sampling was performed via the submandibular or saphenous vein (t=0.083, 0.25, 1, 2, 4, 6 and 9 h) and transferred into microcentrifuge tubes containing Sodium Heparin (1,000 IU/ml) as anti-coagulant placed on wet ice until processed for plasma by centrifugation at approximately 4°C, 3000×g for 15 min. Plasma samples were stored in polypropylene tubes, quick frozen over dry ice and kept at -70±10°C until LC/MS/MS analysis. LC/MS/MS methods for the quantitative determination compounds plasma levels were developed with an internal standard. […] (Phoenix WinNonlin, version 6.2.1, Pharsight, Mountain View, CA) and expressed as Cmax & AUC0-last. […] AUC0-last is the area under the curve expressed as >12 h*μM (Yes or No). Plasma protein binding assay (PPB) (CD-1 mouse and human) expressed as <95% bound, >95% bound, or >99% bound. Kinetic Solubility at pH 7.4 was determined by liquid chromatography/chemiluminescence nitrogen detection (LC/CLND) and was scored as greater than 20µM (Yes or No). hERG inhibition was measured at 11µM by the QPatch- HT system and is expressed as “Yes” if greater than 45% inhibited at 11µM and “No” if less than or equal to 45% inhibited at 11µM. As part of the Drug-Drug Interaction studies (DDI issues), 5 human and 1 mouse CYP isoforms (1A2, 2C9, 2C19, 2D6, 3A4-M, 3A4-T) were tested for inhibition assay at 10 µM. […] Otherwise DDI issues were scored as “No”. Positive and negative controls were run for each assay (Table 1).

[7] = tested on: CYP3A4 mRNA; test: MPCC LMA-Luminex CYP3A4 mRNA; assay type: cell-based, human; details: 10µM
[8] = tested on: CYP1A2 mRNA; test: MPCC LMA-Luminex CYP1A2 mRNA; assay type: cell-based, human; details: 10µM
[9] = tested on: CYP2C9 mRNA; test: MPCC LMA-Luminex CYP2C9 mRNA; assay type: cell-based, human; details: 10µM
[10] = tested on: CYP2D6 mRNA; test: MPCC LMA-Luminex CYP2D6 mRNA; assay type: cell-based, human; details: 10µM
[11] = tested on: CYP2C19 mRNA; test: MPCC LMA-Luminex CYP2C19 mRNA; assay type: cell-based, human; details: 10µM
[12] = tested on: CYP2D8 mRNA; test: MPCC LMA-Luminex CYP2D8 mRNA; assay type: cell-based, human; details: 10µM
[13] = tested on: MAOA mRNA; test: MPCC LMA-Luminex MAOA mRNA; assay type: cell-based, human; details: 10µM
[14] = tested on: MAOB mRNA; test: MPCC LMA-Luminex MAOB mRNA; assay type: cell-based, human; details: 10µM
[15] = tested on: P. falciparum in vitro translation; set-up: method as in ref [19] (a number printed in a supplementary file, which may have a reference list of its own: not looked up in the article's list); details: 1 µM; ref [19]; cited from earlier work
[16] = tested on: P. falciparum NF54 GFP-Pfs16 gametocytes stage IV-V; details: ref [64], cited from earlier work
[17] = tested on: T. cruzi Tulahuen; details: ref [84]; read-out: Trypanosoma cruzi Tulahuen intracellular amastigotes in MRC5 cell line EC50; cited from earlier work
[18] = tested on: Perkinsus marinus trophozoites; set-up: method as in ref [96] (a number printed in a supplementary file, which may have a reference list of its own: not looked up in the article's list); details: 20µM; ref [96]; cited from earlier work
[19] = tested on: NCI60 human tumor cell lines; test: NCI60 5-dose (dose-response) assay; assay type: cell-based
Description: Columns IE-KK. NCI: Misra group (data presented first in this paper). NCI60 anti-tumor cell activity. Methods: […] These 60 cell lines, along with others, have been developed at NCI and have been maintained and distributed for research purposes by NCI for over 25 years. The experimental readout provides both inhibition of cell growth and cell kill. The screen was originally designed to prioritize agents for further evaluation. […] This is the same as for the 5-dose assay, described on http://dtp.cancer.gov/branches/btb/ivclsp.html. […] Testing beyond the initial screen: There were 133 compounds that passed threshold to proceed to 5-dose (dose-response) (data are available for the 133 compounds at the DTP public website (dtp.cancer.gov) by searching either the MMV number or NSC number). After examination of the 5-dose data, 10 compounds were selected for repeat testing based generally on potency, differential cell activity or activity on an individual cell lines or cell line panel. A summary of the data for the 10 compounds of interest is in the table below.

[20] = tested on: Strongyloides stercoralis; test: Strongyloides stercoralis Scynexis; assay type: cell-based; details: 10µM
Method: Supplement ppat.1005763.s002.xlsx, sheet "S1 Table Heat Map" | column: Strongyloides stercoralis % dead at 10µM Scynexis

[21] = mean over cell lines of one experiment, listed as 766523/2

| SMILES | inhibition at 5 µM [1] | inhibition at 5 µM [2] | EC50 [3] | Onchocerca lienalis % motility [4] | inhibition at 25 µM [5] | AUC [6] | Cmax [6] | Human hepatocyte CYP3A4 mRNA induction, 0.0 normal [7] | Human hepatocyte CYP1A2 mRNA induction, 0.0 normal [8] | Human hepatocyte CYP2C9 mRNA induction, 0.0 normal [9] | Human hepatocyte CYP2D6 mRNA induction, 0.0 normal [10] | Human hepatocyte CYP2C19 mRNA induction, 0.0 normal [11] | Human hepatocyte CYP2D8 mRNA induction, 0.0 normal [12] | Human hepatocyte MAOA mRNA induction, 0.0 normal [13] | Human hepatocyte MAOB mRNA induction, 0.0 normal [14] | Translation Inhibitors (nl = 1.0, in vitro translation with P. falciparum lysate) [15] | gametocyte late stage (IV-V) GFP-MTR % inhibition ([16]; 0.5µM) | gametocyte late stage (IV-V) GFP-MTR % inhibition ([16]; 5µM) | EC50 [17] | Perkinsus marinus % growth [18] | other results |
| --- | --- | --- | --- | --- | --- | --- | --- | --- | --- | --- | --- | --- | --- | --- | --- | --- | --- | --- | --- | --- | --- |
| CCOC(=O)c1cnc2ccc(OC)cc2c1NCc1ccccc1 [MMV665813] | 97% | 0% | 1 µM | 100% | 40% | < 12 µM·h | < 1000 nM | -0.06 | -0.15 | -0.17 | -1.27 | -0.35 | -0.79 | -0.36 | -1.05 | 1.47 | 10% | 2% | 13 µM | 69% |  |
| CCN1CCN(c2cc(C)c3cc(NC(=O)c4ccc(OC)c(OC)c4)ccc3n2)CC1 [MMV019074] | 99% | 64% | 7.92 µM | 100% | 15% | < 12 µM·h | > 1000 nM |  |  |  |  |  |  |  |  | 0.94 | -6.56% | 4% | 6.59 µM | 92% | Notes (NCI60 5-dose activity pattern) [19]: Specific lines sensitive; MGLI50 = Mean Growth Log I50 ([19]; 5-dose, mean over NCI60 panel): -4.91; _MID Log10GI50 [19, 21]: -4.8 Molar and -5.03 Molar; _MID Log10LC50 [19, 21]: -4.0 Molar and -4.04 Molar; _MID Log10TGI [19, 21]: -4.05 Molar and -4.25 Molar |
| CCN(CC)c1cc(C)c2cc(NC(=O)c3cccc(OC)c3)ccc2n1 [MMV000498] | 97% | 70% | 8.99 µM | 100% | 19% | > 12 µM·h | > 1000 nM |  |  |  |  |  |  |  |  | 0.87 | -0.167% | 87% | 13.7 µM | 74% | Strongyloides stercoralis % dead [20]: 25% |
| COc1ccc(C(=O)Nc2ccc3nc(N4CCCCC4)cc(C)c3c2)cc1OC [MMV019758] | 76% | 18% | 0.46 µM | 100% | 21% | > 12 µM·h | > 1000 nM |  |  |  |  |  |  |  |  | 0.98 | 3.3% | 51% | 14.6 µM | 101% |  |
| COc1cc2cc(C(=O)Nc3ccccc3)c(N)nc2cc1OC [MMV006767] | 99% | 0% | 21.1 µM | 100% | 17% | > 12 µM·h | > 1000 nM | 0.0216 | -0.09 | -0.09 | -0.21 | -0.39 | -0.10 | 0.23 | -0.22 | 0.75 | 3% | -13% |  | 44% |  |
